In PMC10786919, “Design-rules for stapled peptides with in vivo activity and their application to Mdm2/X antagonists” (Nature Communications, 2024):
Values after ≈ are worked out from the molar mass of the structure shown. Like-named read-outs stand apart in the source and are kept apart here. Positions of bridges follow the written chain, without caps; N, C: chain ends. Non-standard residues stand in square brackets, D forms with d. Residues, ends and D or L forms follow the SMILES beside them. Lys(N3) = [N-]=[N+]=NCCCC[C@H](N)C(=O)O; R8 = C=CCCCCCC[C@@](C)(N)C(=O)O; Cba = N[C@@H](CC1CCC1)C(=O)O; S5 = C=CCCC[C@](C)(N)C(=O)O; βAla = NCCC(=O)O

What was measured:
[1] = Lactate dehydrogenase (LDH) release assay; format: cell-based
Outline: (§1)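 Read-out was lactate dehydrogenase release, reflecting loss of membrane integrity, in reporter-engineered HCT116 cells (p53-responsive β-lactamase) seeded at 8000 cells per well. Final DMSO was 0.5%, and reported values are geometric means from three or more biological repeats.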

HCT116 cells = experiment: Lactate dehydrogenase (LDH) release assay; format: cell-based
Outline: as §1

[2] = Solubility assay (kinetic solubility, PBS pH 7); format: physicochemical; settings: pH 7, PBS; for solubility kinetic: pH 7, aqueous buffer, kinetic from dmso stock, read-out: Solubility
Outline: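 Reference standards were made by diluting the 10 mM stock to 100 µM in acetonitrile:methanol:DMSO 10:80:10. Solubility in µM was calculated as the sample peak area divided by the standard peak area, multiplied by the standard concentration.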

in vitro = experiment: in vitro
Outline: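 Azido-peptide permeability was read as loss of NanoBRET signal (donor 450 nm, acceptor 610 nm) after adding NanoBret618-azide at 10 μM final.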

EPSA = format: physicochemical
[3] = Experimental LogD (partition coefficient); settings: for logD: not stated, Partition Coeff LogD
Ca Ski cell line = settings: 72 h
Outline: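 Compound dilution series (10 points, 3-fold, 10 mM top stock in DMSO) tested on overnight-plated Ca Ski cells in RPMI1640/10% FBS and on blasticidin-selected p53RE-bla HCT-116 cells in McCoy's 5A; read-out was CellTiter-Glo 2.0 luminescence after room-temperature equilibration.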

[4] = tested on: Jump-In T-REx CHO-K1 BLA cells; experiment: cells; format: cell-based; settings: Supplementary Table 1; 0% serum, 4 hours
[5] = Nanoclick permeability assay EC50
[6] = 0% FBS 4Hr, read-out: LDH: Cytotoxicity assay: EC50
[7] = 10% FBS 16Hr, read-out: LDH: Cytotoxicity assay: EC50

| SMILES | EC50 ([1]; LDH: Cytotoxicity assay: EC50) [µM] | LDH: Cytotoxicity assay: % Effect (HCT116 cells) [%] | solubility kinetic [2] [µM] | cell entry EC50 (in vitro; [5]) [µM] | EPSA (EPSA; EPSA) [A^2] | logD [3] | Partition Coeff LogD [3] | Solubility [2] | EPSA (EPSA) | EC50 [1, 6] [µM] | EC50 [1, 7] [µM] | LDH: Cytotoxicity assay: % Effect (HCT116 cells; 0% FBS 4Hr) [%] | LDH: Cytotoxicity assay: % Effect (HCT116 cells; 10% FBS 16Hr) [%] | cell entry EC50 (in vitro) [µM] | EC50 (Ca Ski cell line) [µM] | off-target effects (LDH release and/or counterscreen activity) [4] |
| --- | --- | --- | --- | --- | --- | --- | --- | --- | --- | --- | --- | --- | --- | --- | --- | --- |
| CC(=O)N[C@@H](CCCCN=[N+]=[N-])C(=O)N[C@@H](CCCCN)C(=O)N[C@@H](CC(C)C)C(=O)N[C@H](C(=O)N[C@@H](Cc1ccccc1)C(=O)N[C@]1(C)CCCCCCC=CCCC[C@@](C)(C(=O)N[C@@H](CO)C(=O)N[C@@H](C)C(=O)N[C@@H](C)C(N)=O)NC(=O)[C@H](CC2CCC2)NC(=O)[C@H](CCC(N)=O)NC(=O)[C@H](C)NC(=O)[C@H](Cc2c[nH]c3ccccc23)NC(=O)[C@H](Cc2ccc(O)cc2)NC(=O)[C@H](CCC(=O)O)NC1=O)[C@@H](C)O [MP-025] | > 50 | 3.386 | 3 (≈ 6.08 µg/mL) | 1.17 | 205 | 2.83 |  |  |  |  |  |  |  |  |  |  |
| CC(=O)N[C@@H](CCCCN=[N+]=[N-])C(=O)N[C@@H](CCCCN)C(=O)N[C@@H](CCCCN)C(=O)N[C@@H](CC(C)C)C(=O)N[C@H](C(=O)N[C@@H](Cc1ccccc1)C(=O)N[C@]1(C)CCCCCCC=CCCC[C@@](C)(C(=O)N[C@@H](CO)C(=O)N[C@@H](C)C(=O)N[C@@H](C)C(N)=O)NC(=O)[C@H](CC2CCC2)NC(=O)[C@H](CCC(N)=O)NC(=O)[C@H](C)NC(=O)[C@H](Cc2c[nH]c3ccccc23)NC(=O)[C@H](Cc2ccc(O)cc2)NC(=O)[C@H](CCC(=O)O)NC1=O)[C@@H](C)O [MP-026] | > 50 | 25.62 | 3 (≈ 6.47 µg/mL) | 1.03 | 213 |  | Poorly Behaved |  |  |  |  |  |  |  |  |  |
| CC(=O)N[C@@H](CCC(=O)O)C(=O)N[C@@H](CCCCN=[N+]=[N-])C(=O)NCCCCCC(=O)N[C@H](C(=O)N[C@@H](CO)C(=O)N[C@@H](Cc1ccccc1)C(=O)N[C@]1(C)CCCCCCC=CCCC[C@@](C)(C(N)=O)NC(=O)[C@H](CC(C)C)NC(=O)[C@H](CC(C)C)NC(=O)[C@H](C)NC(=O)[C@H](Cc2c[nH]c3ccccc23)NC(=O)[C@H](Cc2ccc(O)cc2)NC(=O)[C@H](CCC(=O)O)NC1=O)[C@@H](C)O [MP-027] | > 50 | 2.385 |  | 0.415 |  |  | Poorly Behaved | Poorly Behaved | Poorly Behaved |  |  |  |  |  |  |  |
| CC(=O)N[C@@H](CCCCN=[N+]=[N-])C(=O)N[C@H](C(=O)N[C@@H](Cc1ccccc1)C(=O)N[C@]1(C)CCCCCCC=CCCC[C@@](C)(C(=O)N[C@@H](C)C(=O)N[C@@H](C)C(=O)N[C@@H](C)C(=O)N[C@@H](C)C(=O)N[C@@H](C)C(=O)N[C@H](C)C(N)=O)NC(=O)[C@H](CC2CCC2)NC(=O)[C@H](CCC(N)=O)NC(=O)[C@H](C)NC(=O)[C@H](Cc2c[nH]c3ccccc23)NC(=O)[C@H](Cc2ccc(O)cc2)NC(=O)[C@H](CCC(=O)O)NC1=O)[C@@H](C)O [MP-062] (Ac-[Lys(N3)]TF[R8]EYWAQ[Cba][S5]AAAAA[dA]-NH2; staple 4-11) |  |  |  |  | 201 |  | Poorly Behaved | Poorly Behaved |  | > 50.7 | > 50.7 | 5.433 | 10.66 | 2.08 |  |  |
| CC(=O)N[C@@H](CCCCN=[N+]=[N-])C(=O)NCCC(=O)N[C@@H](CC(C)C)C(=O)N[C@H](C(=O)N[C@@H](Cc1ccccc1)C(=O)N[C@]1(C)CCCCCCC=CCCC[C@@](C)(C(=O)N[C@@H](CO)C(=O)N[C@@H](C)C(=O)N[C@@H](C)C(N)=O)NC(=O)[C@H](CCC(N)=O)NC(=O)[C@H](Cc2ccc(O)cc2)NC(=O)[C@H](Cc2c[nH]c3ccccc23)NC(=O)[C@H](CC2CCC2)NC(=O)[C@H](CCC(=O)O)NC(=O)[C@H](C)NC1=O)[C@@H](C)O [MP-205] (Ac-[Lys(N3)][βAla]LTF[R8]AE[Cba]WYQ[S5]SAA-NH2; staple 6-13) | > 50.7 | -2.394 | 16 (≈ 31.5 µg/mL) | 0.277 | 198 | 3.02 |  |  |  |  |  |  |  |  |  |  |
| CC(=O)N[C@@H](CCCCN=[N+]=[N-])C(=O)NCCC(=O)N[C@@H](CC(C)C)C(=O)N[C@H](C(=O)N[C@@H](Cc1ccccc1)C(=O)N[C@]1(C)CCCCCCC=CCCC[C@@](C)(C(=O)N[C@@H](C)C(=O)N[C@@H](C)C(=O)N[C@@H](Cc2ccccc2)C(=O)N[C@@H](C)C(=O)N[C@@H](C)C(=O)N[C@H](C)C(N)=O)NC(=O)[C@H](CC2CCC2)NC(=O)[C@H](CCC(N)=O)NC(=O)[C@H](C)NC(=O)[C@H](Cc2c[nH]c3ccccc23)NC(=O)[C@H](Cc2ccc(O)cc2)NC(=O)[C@H](CCC(=O)O)NC1=O)[C@@H](C)O [MP-228] (Ac-[Lys(N3)][βAla]LTF[R8]EYWAQ[Cba][S5]AAFAA[dA]-NH2; staple 6-13) | > 50.7 |  | 2 (≈ 4.49 µg/mL) | 2.51 | 199 |  |  |  |  |  |  |  |  |  | 30.7 |  |
| CC(=O)N[C@@H](CCCCN=[N+]=[N-])C(=O)NCCC(=O)N[C@@H](CC(C)C)C(=O)N[C@H](C(=O)N[C@@H](Cc1ccccc1)C(=O)N[C@]1(C)CCCCCCC=CCCC[C@@](C)(C(=O)N[C@@H](CCC(=O)O)C(=O)N[C@@H](CCC(=O)O)C(=O)N[C@@H](C)C(N)=O)NC(=O)[C@H](CC2CCC2)NC(=O)[C@H](CCC(N)=O)NC(=O)[C@H](CCC(=O)O)NC(=O)[C@H](Cc2c[nH]c3ccccc23)NC(=O)[C@H](Cc2ccc(O)cc2)NC(=O)[C@H](CCC(=O)O)NC1=O)[C@@H](C)O [MP-3684] (Ac-[Lys(N3)][βAla]LTF[R8]EYWEQ[Cba][S5]EEA-NH2; staple 6-13) |  |  |  |  |  | 1.89 |  |  | Poorly Behaved | > 50.7 | > 50.7 | 7.239 | 0.1213 | 3.88 |  | none |
| CC(=O)N[C@@H](CCCCN=[N+]=[N-])C(=O)NCCC(=O)N[C@@H](CC(C)C)C(=O)N[C@H](C(=O)N[C@@H](Cc1ccccc1)C(=O)N[C@]1(C)CCCCCCC=CCCC[C@@](C)(C(=O)N[C@@H](CCC(=O)O)C(=O)N[C@@H](CCC(=O)O)C(=O)N[C@@H](C)C(=O)N[C@@H](C)C(=O)N[C@@H](C)C(=O)N[C@@H](C)C(N)=O)NC(=O)[C@H](CC2CCC2)NC(=O)[C@H](CCC(N)=O)NC(=O)[C@H](CCC(=O)O)NC(=O)[C@H](Cc2c[nH]c3ccccc23)NC(=O)[C@H](Cc2ccc(O)cc2)NC(=O)[C@H](CCC(=O)O)NC1=O)[C@@H](C)O [MP-3685, AZIDE-ATSP-7041 (A8E, EEAAAA TAIL)] (Ac-[Lys(N3)][βAla]LTF[R8]EYWEQ[Cba][S5]EEAAAA-NH2; staple 6-13) |  |  | 150 (≈ 351 µg/mL) |  | 195 | 1.99 |  |  |  | > 50.7 | > 50.7 | 10 | -3.573 | 1.26 |  |  |
| CC(=O)N[C@@H](CCCCN=[N+]=[N-])C(=O)NCCC(=O)N[C@@H](CC(C)C)C(=O)N[C@H](C(=O)N[C@@H](Cc1ccccc1)C(=O)N[C@]1(C)CCCCCCC=CCCC[C@@](C)(C(=O)N[C@@H](CO)C(=O)N[C@@H](C)C(=O)N[C@@H](C)C(N)=O)NC(=O)[C@H](CC2CCC2)NC(=O)[C@H](C)NC(=O)[C@H](CCC(N)=O)NC(=O)[C@H](Cc2c[nH]c3ccccc23)NC(=O)[C@H](Cc2ccc(O)cc2)NC(=O)[C@H](CCC(=O)O)NC1=O)[C@@H](C)O [MP-4203] (Ac-[Lys(N3)][βAla]LTF[R8]EYWQA[Cba][S5]SAA-NH2; staple 6-13) | > 50.7 | 15.26 | 179 (≈ 353 µg/mL) | 1.2 | 190 | 2.71 |  |  |  |  |  |  |  |  |  |  |
| CC(=O)N[C@@H](CCCCN=[N+]=[N-])C(=O)NCCC(=O)N[C@@H](CC(C)C)C(=O)N[C@@H](CC1CCC1)C(=O)N[C@@H](Cc1ccc(O)cc1)C(=O)N[C@]1(C)CCCCCCC=CCCC[C@@](C)(C(=O)N[C@@H](C)C(=O)N[C@@H](C)C(=O)N[C@@H](C)C(N)=O)NC(=O)[C@H](Cc2ccccc2)NC(=O)[C@H](Cc2c[nH]c3ccccc23)NC(=O)[C@H](CCC(=O)O)NC(=O)[C@H]([C@@H](C)O)NC(=O)[C@H](CCC(N)=O)NC(=O)[C@H](CO)NC1=O [MP-4204] (Ac-[Lys(N3)][βAla]L[Cba]Y[R8]SQTEWF[S5]AAA-NH2; staple 6-13) | > 50.7 | 16.98 |  | 0.669 | 191 |  | Poorly Behaved | Poorly Behaved |  |  |  |  |  |  |  |  |
